Patent US20250059198A1, “BRM DEGRADING COMPOUNDS AND ASSOCIATED METHODS OF USE” (Arvinas Operations, Inc., priority 2021, published 2025)

Molecular target: T1, BRM (Homo sapiens, UniProt P51531)
T1 construct: Western Blot Screen of BRM Degradation in SW1573 Cells; endogenous in cells; host or cells: SW1573 cells
Assay: BRM degradation (Dmax and DC50) in SW1573 cells, Western blot screen / In-Cell Western screen
Format: cell-based
Conditions: overnight (18-20 hours) treatment; for Dmax: read-out: Dmax (%)** (% degraded)
Experimental: (§1) To assess BRM degradation (Dmax and DC50) cells were seeded at 8000/well in 96-well black/clear-bottom plates in 180 μL DMEM growth media (containing 1% pen-strep, 1% HEPES and 10% FBS) per well. Plates were incubated overnight to allow adhesion. The next morning cells were treated by adding 20 μL of 10× target compound concentration (1% DMSO) to appropriate wells and returned to incubator for overnight (18-20 hours). The final DMSO concentration was 0.1%.
For lysing, adherent cells were washed once with 100 μL of DPBS. Cells were lysed in 40 μL of 1×RIPA+HALT protease inhibitor on ice for 10 minutes and frozen until use at −80° C. Thawed lysates were cleaned by filtration in 1.2 µm filter plates, or alternatively, were spun clean at 2300 g at 4° C. for 30 minutes.
For blotting, for each Western sample 30 μL of lysate was added to 10 μL of 4× LDS sample buffer, then denatured at 95° C. for 5 minutes in the thermal cycler and placed on ice. Samples were loaded on 4-15% Tris/Glycine gels and run for 25 minutes at 250 constant volts in 1× Tris/Glycine buffer with 4 μL of ladder and 12 μL of each sample loaded for each blot. Protein was transferred from gels to NC with BioRad Turbo dry-transfer unit with the Turbo/midi default program. All blots were rinsed with ddH2O and blocked for 1 hour at room temperature in 5% BSA in TBST (0.1%) on rocker. Blots were exposed to primary antibody in 5% BSA in TBST (0.1%) overnight at 4° C. on rocker (1:1000 for BRM (Cell Signaling Tech. cat #11966) and 1:2000 for alpha-tubulin (Cell Signaling Tech. cat #3873), a control protein. Blot was washed with TBST (0.1%) three times for 5 minutes on rocker at room temperature. Secondary antibody was added, and blots were incubated on a room temperature rocker for 1 hour with 1:18,000 anti-rabbit-HRP and/or anti-mouse-HRP in 5% BSA in TBST (0.1%). Blots were washed three times in TBST (0.1%) for 5 minutes at room temperature on the rocker. Signal was developed with Femto Maximum Sensitivity substrate for 4 minutes and blots read on ChemiDoc™.
as §1, with “DC50),” for “DC50)”, “10×” for “10× target”, “compound” for “compound concentration”
For processing, the plates were removed from incubator, the media was removed, and immediately 200 μL of cold (4° C.) DPBS was added to all wells. DPBS was then removed, and 50 μL of 4% paraformaldehyde (PFA) in DPBS (4° C.) was added to all wells, and the plates were incubated at room temperature for 20 minutes. PFA was then removed, and 200 μL of TBS-T containing 0.5% Triton X-100 was added to all wells, and the plates were incubated at room temperature for 30 minutes. TBS-T containing 0.5% Triton X-100 was then removed, and 50 μL of Li-Cor blocking solution was added, and the plates were incubated at room temperature for a minimum of one hour. The blocking solution was removed, and 50 μL of Li-Cor blocking solution containing primary antibody cocktail was added (1:1000 for BRM (Cell Signaling Tech. cat #11966) and 1:2000 for alpha-tubulin (Sigma cat #T6074), a control protein. Plates were then placed in cold room until the next day.
The next day plates were washed three times with TBS-T, 200 μL per well. Fifty […] of secondary antibody cocktail in LI-COR blocking solution (anti-rabbit_800 nm and anti-mouse_680 nm) was added to all wells (diluted 1:5000). The plates were incubated at room temperature for at least one hour while protected from light. The plates were washed twice with TBS-T, 200 μL per well.
To read each plate TBS-T was removed, and each plate was inverted tapped on a paper towel. […]

T1 sequence (P51531 whole entry): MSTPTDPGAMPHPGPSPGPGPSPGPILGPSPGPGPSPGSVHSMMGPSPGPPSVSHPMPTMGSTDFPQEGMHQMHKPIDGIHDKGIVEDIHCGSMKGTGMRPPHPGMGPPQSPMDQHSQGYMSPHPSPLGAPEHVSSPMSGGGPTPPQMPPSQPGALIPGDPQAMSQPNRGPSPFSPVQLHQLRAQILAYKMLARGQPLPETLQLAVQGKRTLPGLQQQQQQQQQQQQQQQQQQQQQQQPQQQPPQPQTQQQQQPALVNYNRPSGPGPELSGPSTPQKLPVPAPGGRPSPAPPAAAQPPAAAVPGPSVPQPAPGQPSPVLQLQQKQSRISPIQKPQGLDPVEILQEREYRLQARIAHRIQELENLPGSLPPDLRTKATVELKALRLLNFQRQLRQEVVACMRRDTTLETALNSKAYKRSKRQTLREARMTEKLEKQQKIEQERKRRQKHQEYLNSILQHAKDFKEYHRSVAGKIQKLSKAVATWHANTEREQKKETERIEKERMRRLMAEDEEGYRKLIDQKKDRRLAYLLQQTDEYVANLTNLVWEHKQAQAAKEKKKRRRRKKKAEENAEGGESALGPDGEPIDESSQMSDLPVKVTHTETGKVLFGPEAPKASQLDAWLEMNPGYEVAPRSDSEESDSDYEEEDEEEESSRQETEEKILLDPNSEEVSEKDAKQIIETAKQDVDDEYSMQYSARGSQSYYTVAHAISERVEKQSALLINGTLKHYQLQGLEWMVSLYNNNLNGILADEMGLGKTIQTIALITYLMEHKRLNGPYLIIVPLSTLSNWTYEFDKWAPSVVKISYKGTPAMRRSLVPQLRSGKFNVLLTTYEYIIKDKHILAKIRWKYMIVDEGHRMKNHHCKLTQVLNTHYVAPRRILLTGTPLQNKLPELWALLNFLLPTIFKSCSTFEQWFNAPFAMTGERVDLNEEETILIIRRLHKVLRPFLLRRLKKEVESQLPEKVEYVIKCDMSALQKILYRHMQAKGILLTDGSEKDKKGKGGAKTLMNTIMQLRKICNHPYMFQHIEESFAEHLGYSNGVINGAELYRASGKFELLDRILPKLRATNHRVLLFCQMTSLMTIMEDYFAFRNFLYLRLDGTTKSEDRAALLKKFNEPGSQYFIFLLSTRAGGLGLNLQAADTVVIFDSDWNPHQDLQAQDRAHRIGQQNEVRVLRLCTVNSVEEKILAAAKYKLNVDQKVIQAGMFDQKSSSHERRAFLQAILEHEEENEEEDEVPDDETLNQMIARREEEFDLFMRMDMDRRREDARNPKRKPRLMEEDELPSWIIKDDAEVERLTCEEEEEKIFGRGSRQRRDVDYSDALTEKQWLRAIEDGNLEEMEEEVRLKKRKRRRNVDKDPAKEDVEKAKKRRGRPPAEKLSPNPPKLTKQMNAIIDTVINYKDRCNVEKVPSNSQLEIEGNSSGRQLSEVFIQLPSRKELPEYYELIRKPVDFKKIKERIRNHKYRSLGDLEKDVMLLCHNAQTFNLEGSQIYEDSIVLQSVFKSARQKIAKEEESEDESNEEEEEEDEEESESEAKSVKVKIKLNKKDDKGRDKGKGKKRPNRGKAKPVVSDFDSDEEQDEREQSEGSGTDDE

| SMILES | DC50 | Dmax |
| --- | --- | --- |
| CC(C)[C@@H](C(=O)N1C[C@H](O)C[C@H]1C(=O)N[C@@H](C)c1ccc(C#N)cc1)c1cc(N2CCC(OCCN3CCC(Oc4cc(N5C6CCC5CN(c5cc(-c7ccccc7O)nnc5N)C6)ccn4)CC3)CC2)no1 [Compound 151, (2S,4R)-1-[(2R)-2-{3-[4-(2-{4-[(4-{3-[3-amino-6-(2-hydroxyphenyl)pyridazin-4-yl]-3,8-diazabicyclo[3.2.1]octan-8-yl}pyridin-2-yl)oxy]piperidin-1-yl}ethoxy)piperidin-1-yl]-1,2-oxazol-5-yl}-3-methylbutanoyl]-N-[(1S)-1-(4-cyanophenyl)ethyl]-4-hydroxypyrrolidine-2-carboxamide] | 2.5 to 10 nM | > 75% |
| Cc1ncsc1-c1ccc([C@H](C)NC(=O)[C@@H]2C[C@@H](O)CN2C(=O)[C@@H](c2cc(N3CCC(CN4CCC(O[C@H]5C[C@H](N6CCC(O[C@H]7CCN(c8cc(-c9ccccc9O)nnc8N)C7)CC6)C5)CC4)CC3)no2)C(C)C)cc1 [Compound 77, (2S,4R)-4-hydroxy-N-[(1S)-1-[4-(4-methyl-1,3-thiazol-5-yl)phenyl]ethyl]-1-[(2R)-3-methyl-2-{3-[4-({4-[(1r,3r)-3-(4-{[(3S)-1-[3-amino-6-(2-hydroxyphenyl)pyridazin-4-yl]pyrrolidin-3-yl]oxy}piperidin-1-yl)cyclobutoxy]piperidin-1-yl}methyl)piperidin-1-yl]-1,2-oxazol-5-yl}butanoyl]pyrrolidine-2-carboxamide] | < 2.5 nM | > 75% |
| CC(C)[C@H](C(=O)N1C[C@H](O)C[C@H]1C(=O)N[C@@H](C)c1ccc(-c2ccnn2C)cc1)c1cc(N2CCC(OC3CCN(CC4CC(N5CCC([C@H](C)n6cc(C#Cc7cc(-c8ccccc8O)nnc7N)cn6)CC5)C4)CC3)CC2)no1 (stereo partly drawn) [Compound 111, (2S,4R)-1-[(2S)-2-{3-[4-({1-[(3-{4-[(1S)-1-(4-{2-[3-amino-6-(2-hydroxyphenyl)pyridazin-4-yl]ethynyl}-1H-pyrazol-1-yl)ethyl]piperidin-1-yl}cyclobutyl)methyl]piperidin-4-yl}oxy)piperidin-1-yl]-1,2-oxazol-5-yl}-3-methylbutanoyl]-4-hydroxy-N-[(1S)-1-[4-(1-methyl-1H-pyrazol-5-yl)phenyl]ethyl]pyrrolidine-2-carboxamide] | ≥ 30 nM | – |
| CC(C)[C@@H](C(=O)N1C[C@H](O)C[C@H]1C(=O)N[C@@H](C)c1ccc(C#N)cc1)c1cc(N2CCC(CN3CCC(O[C@H]4C[C@H](Oc5cc(N6CC7CCC(C6)N7c6cc(-c7ccccc7O)nnc6N)ccn5)C4)CC3)CC2)no1 [Compound 15, (2S,4R)-N-[(1S)-1-(4-cyanophenyl)ethyl]-4-hydroxy-1-[(2R)-3-methyl-2-{3-[4-({4-[(1r,3r)-3-[(4-{8-[3-amino-6-(2-hydroxyphenyl)pyridazin-4-yl]-3,8-diazabicyclo[3.2.1]octan-3-yl}pyridin-2-yl)oxy]cyclobutoxy]piperidin-1-yl}methyl)piperidin-1-yl]-1,2-oxazol-5-yl}butanoyl]pyrrolidine-2-carboxamide] | 2.5 to 10 nM | > 75% |
| Cc1ncsc1-c1ccc([C@H](CC(=O)N2CCC(CN3CCC(O[C@H]4C[C@H](Oc5cc(N6C7CCC6CN(c6cc(-c8ccccc8O)nnc6N)C7)ccn5)C4)CC3)CC2)NC(=O)[C@@H]2C[C@@H](O)CN2C(=O)[C@@H](C(C)C)N2Cc3ccccc3C2=O)cc1 [Compound 37, (2S,4R)-4-hydroxy-N-[(1S)-1-[4-(4-methyl-1,3-thiazol-5-yl)phenyl]-3-oxo-3-[4-({4-[(1r,3r)-3-[(4-{3-[3-amino-6-(2-hydroxyphenyl)pyridazin-4-yl]-3,8-diazabicyclo[3.2.1]octan-8-yl}pyridin-2-yl)oxy]cyclobutoxy]piperidin-1-yl}methyl)piperidin-1-yl]propyl]-1-[(2R)-3-methyl-2-(1-oxo-2,3-dihydro-1H-isoindol-2-yl)butanoyl]pyrrolidine-2-carboxamide] | ≥ 30 nM | – |
| Cc1ncsc1-c1ccc([C@H](C)NC(=O)[C@@H]2C[C@@H](O)CN2C(=O)[C@@H](c2cc(N3CCC(CN4CCC5(CC4)CC(N4CCN(C)[C@H](CN6C7CCC6CN(c6cc(-c8ccccc8O)nnc6N)C7)C4)C5)CC3)no2)C(C)C)cc1 [Compound 132, (2S,4R)-1-[(2R)-2-{3-[4-({2-[(3S)-3-({3-[3-amino-6-(2-hydroxyphenyl)pyridazin-4-yl]-3,8-diazabicyclo[3.2.1]octan-8-yl}methyl)-4-methylpiperazin-1-yl]-7-azaspiro[3.5]nonan-7-yl}methyl)piperidin-1-yl]-1,2-oxazol-5-yl}-3-methylbutanoyl]-4-hydroxy-N-[(1S)-1-[4-(4-methyl-1,3-thiazol-5-yl)phenyl]ethyl]pyrrolidine-2-carboxamide] | < 2.5 nM | > 75% |
| Cc1ncsc1-c1ccc([C@H](C)NC(=O)[C@@H]2C[C@@H](O)CN2C(=O)[C@@H](c2cc(N3CCC(CN4CCC(O[C@H]5C[C@H](C(=O)N6CCC(N7C8CCC7CN(c7cc(-c9ccccc9O)nnc7N)C8)CC6)C5)CC4)CC3)no2)C(C)C)cc1 [Compound 76, (2S,4R)-4-hydroxy-N-[(1S)-1-[4-(4-methyl-1,3-thiazol-5-yl)phenyl]ethyl]-1-[(2R)-3-methyl-2-{3-[4-({4-[(1r,3r)-3-(4-{3-[3-amino-6-(2-hydroxyphenyl)pyridazin-4-yl]-3,8-diazabicyclo[3.2.1]octan-8-yl}piperidine-1-carbonyl)cyclobutoxy]piperidin-1-yl}methyl)piperidin-1-yl]-1,2-oxazol-5-yl}butanoyl]pyrrolidine-2-carboxamide] | 2.5 to 10 nM | > 75% |
| Cc1ncsc1-c1ccc([C@H](C)NC(=O)[C@@H]2C[C@@H](O)CN2C(=O)[C@@H](c2cc(O[C@H]3C[C@H](CN4CCC(O[C@H]5C[C@H](N6CCOC7(CCN(c8cc(-c9ccccc9O)nnc8N)CC7)C6)C5)CC4)C3)no2)C(C)C)cc1 [Compound 68, (2S,4R)-4-hydroxy-N-[(1S)-1-[4-(4-methyl-1,3-thiazol-5-yl)phenyl]ethyl]-1-[(2R)-3-methyl-2-{3-[(1r,3r)-3-({4-[(1r,3r)-3-{9-[3-amino-6-(2-hydroxyphenyl)pyridazin-4-yl]-1-oxa-4,9-diazaspiro[5.5]undecan-4-yl}cyclobutoxy]piperidin-1-yl}methyl)cyclobutoxy]-1,2-oxazol-5-yl}butanoyl]pyrrolidine-2-carboxamide] | < 2.5 nM | > 75% |
| Cc1ncsc1-c1ccc([C@H](C)NC(=O)[C@@H]2C[C@@H](O)CN2C(=O)[C@@H](c2cc(N3CCC(CN4CCC5(CC4)CC(N4CCC[C@@](O)(CN6C7CCC6CN(c6cc(-c8ccccc8O)nnc6N)C7)C4)C5)CC3)no2)C(C)C)cc1 [Compound 71, (2S,4R)-1-[(2R)-2-{3-[4-({2-[(3S)-3-({3-[3-amino-6-(2-hydroxyphenyl)pyridazin-4-yl]-3,8-diazabicyclo[3.2.1]octan-8-yl}methyl)-3-hydroxypiperidin-1-yl]-7-azaspiro[3.5]nonan-7-yl}methyl)piperidin-1-yl]-1,2-oxazol-5-yl}-3-methylbutanoyl]-4-hydroxy-N-[(1S)-1-[4-(4-methyl-1,3-thiazol-5-yl)phenyl]ethyl]pyrrolidine-2-carboxamide] | < 2.5 nM | > 75% |
